Reference: US5116602A, “Antiplaque oral compositions” (Colgate-Palmolive Company, priority 1989, dated 1992)
Where two headings read alike, the source gives them in different places.

Key:
Rat = settings: cited from earlier work
[1] = system: Actinomyces viscosus T14V; format: cell-based; settings: for % Red. / Bact. Count (Log 10): Table VIII
Description: The SIKT test is a basic microbiological test which incorporates a fixed contact time. […] The system is then neutralized to inhibit further antimicrobial activity. The surviving bacteria are enumerated using plate count methodology. The reduction in counts compared to a water control is the basis for expressing activity. A three log reduction is usually considered significant.

[2] = oral, values reported in the literature
[3] = Table VI, rinses, with and without Carbopol polymers

In the case of `CC(C)=CCC[C@](C)(O)C1CC=C(C)CC1` (stereo partly drawn) [Bisabolol], the “LD 50 (Oral, Rat)” value (Rat; [2]) is given as 5000 mg/kg.

For `C=CC(C)(O)CCC=C(C)CCC=C(C)C` (stereo not drawn) [Nerolidol], the “LD 50 (Oral, Rat)” value (Rat; [2]) is listed as over 5000 mg/kg.

With `Cc1ccc(C(C)C)c(O)c1` [Thymol, reference compound] the “% Red.” value ([1]; concentration 0.01) was 0%, the “Bact. Count (Log 10)” value ([1]; concentration 0.01) was 6.67 Log 10 and the “% Red.” value ([1]; concentration 0.02) was 0%. For the same compound, the “Bact. Count (Log 10)” value ([1]; concentration 0.02) was 6.71 Log 10, the “% Red.” value ([1]; concentration 0.04) was 0% and the “Bact. Count (Log 10)” value ([1]; concentration 0.04) was 6.23 Log 10. For the same compound, the “% Red.” value ([1]; concentration 0.06) was 99.99%, the “Bact. Count (Log 10)” value ([1]; concentration 0.06) was 3.93 Log 10 and the “% Red.” value ([1]; concentration 0.07) was over 99.99%. The “Bact. Count (Log 10)” value ([1]; concentration 0.07) was under 2.00 Log 10, the “% Red.” value ([1]; concentration 0.08) was over 99.99% and the “Bact. Count (Log 10)” value ([1]; concentration 0.08) was under 2.00 Log 10.

For `COC(=O)c1ccccc1O` [Methyl salicylate, reference compound], the “LD 50 (Oral, Rat)” value (Rat; in vivo, po) is listed as 887 mg/kg.

In the case of `[H]/N=C(\N/C(=N/[H])NCCCCCCNC(=N)NC(=N)Nc1ccc(Cl)cc1)Nc1ccc(Cl)cc1` [Chlorhexidine, reference compound], the “% Reduction” value [1, 3] is reported as over 99.00% and the “Bacterial Count (log 10)” value [1, 3] is reported as 4.52 log 10.

With `CC(C)=CCCC(C)=CCCC(C)=CCO` [Farnesol] the “% Red.” value ([1]; concentration 0.005) was 99.9%, the “Bact. Count (Log 10)” value ([1]; concentration 0.005) was 3.66 Log 10 and the “% Red.” value ([1]; concentration 0.0075) was over 99.99%. For the same compound, the “Bact. Count (Log 10)” value ([1]; concentration 0.0075) was 2.50 Log 10, the “% Red.” value ([1]; concentration 0.01) was over 99.99% and the “Bact. Count (Log 10)” value ([1]; concentration 0.01) was under 2.00 Log 10. The “% Red.” value ([1]; concentration 0.02) was over 99.99%, the “Bact. Count (Log 10)” value ([1]; concentration 0.02) was under 2.00 Log 10 and the “% Red.” value ([1]; concentration 0.04) was over 99.99%. The “Bact. Count (Log 10)” value ([1]; concentration 0.04) was under 2.00 Log 10, the “% Red.” value ([1]; concentration 0.06) was over 99.99% and the “Bact. Count (Log 10)” value ([1]; concentration 0.06) was under 2.00 Log 10. For the same compound, the “% Red.” value ([1]; concentration 0.07) was over 99.99%, the “Bact. Count (Log 10)” value ([1]; concentration 0.07) was under 2.00 Log 10 and the “% Red.” value ([1]; concentration 0.08) was over 99.99%. For the same compound, the “Bact. Count (Log 10)” value ([1]; concentration 0.08) was under 2.00 Log 10.
